These are literature values, as cited in patent publication US20110189299A1, “PHARMACEUTICAL COMPOSITION CONTAINING SURFACE-COATED MICROPARTICLES” (NITTO DENKO CORPORATION, priority 2008, published 2011).

As a reminder, the pKa is the negative logarithm of the acid dissociation constant.

For `CN(C)CCc1c[nH]c2ccc(C[C@H]3COC(=O)N3)cc12` [Zolmitriptan], the pKa was 9.5.
